In PubChem BioAssay (NCI) one finds TGI data, which are given here for seven molecules.

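48-hour exposure; five concentrations; linearly interpolated endpoints. TGI marks complete inhibition of growth.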

Test systems include SR leukemia; MDA-MB-231 breast; MCF7 breast; MOLT-4 leukemia; HS 578T breast; PC-3 prostate; OVCAR-3 ovarian; IGROV1 ovarian; UO-31 renal; MALME-3M melanoma; CAKI-1 renal; OVCAR-8 ovarian; 786-0 renal; CCRF-CEM leukemia; U251 CNS; OVCAR-5 ovarian; SF-539 CNS; NCI-H522 lung; SK-MEL-28 melanoma.
Holding throughout (test): growth of human tumour cells (NCI), 48 h

Take `O=C(/C=C/c1ccc2c(c1)OCO2)CC(=O)C(=O)c1c[nH]c2ccccc12`: the TGI is over 100 µM in the experiment with SR leukemia; over 100 µM in the experiment with MDA-MB-231 breast; over 100 µM in the experiment with MCF7 breast; over 100 µM in the experiment on MOLT-4 leukemia; 68.1 µM in the experiment with HS 578T breast; over 100 µM in the experiment with PC-3 prostate. For the same molecule, the TGI in the experiment with OVCAR-3 ovarian was over 100 µM; in the experiment with IGROV1 ovarian it was over 100 µM; in the experiment with UO-31 renal, 64.1 µM; in the experiment with MALME-3M melanoma, over 100 µM; in the experiment on CAKI-1 renal, over 100 µM; with OVCAR-8 ovarian, over 100 µM. The TGI in the experiment with 786-0 renal was over 100 µM; with CCRF-CEM leukemia, 69.4 µM; in the experiment with U251 CNS, over 100 µM; in the experiment with OVCAR-5 ovarian, over 100 µM; in the experiment on SF-539 CNS, over 100 µM; with NCI-H522 lung it was over 100 µM. The same molecule had a TGI in the experiment on SK-MEL-28 melanoma of over 100 µM.
As to `CC1=NN(c2cccc(Cl)c2)C2(C1=C/C=C/c1ccccc1)C(Cl)C(=O)N2c1nc2ccccc2s1` (stereo not drawn), the TGI in the experiment on SR leukemia was 9.54 µM; in the experiment with MDA-MB-231 breast it was 58.3 µM; in the experiment on MCF7 breast, over 100 µM; in the experiment with MOLT-4 leukemia it was 12.1 µM; in the experiment with HS 578T breast it was 49 µM; with PC-3 prostate it was over 82.9 µM. For the same molecule, the TGI is over 80.9 µM in the experiment with OVCAR-3 ovarian; over 100 µM with IGROV1 ovarian; over 61.2 µM with UO-31 renal; over 100 µM with MALME-3M melanoma; over 49.8 µM with CAKI-1 renal; 62.2 µM in the experiment with OVCAR-8 ovarian. Moreover, the TGI in the experiment with 786-0 renal is over 55 µM; in the experiment on CCRF-CEM leukemia, over 59.3 µM; in the experiment on U251 CNS, 37.2 µM; in the experiment on OVCAR-5 ovarian it was over 71.2 µM; in the experiment on SF-539 CNS, over 86.1 µM; with NCI-H522 lung, 47.4 µM. The molecule also showed a TGI in the experiment on SK-MEL-28 melanoma of over 100 µM.
Consider `NS(=O)(=O)c1cc(Cl)c(NC(=S)NC(=O)Nc2ccc(Cl)c(Cl)c2)c(Cl)c1`, for which the TGI was over 100 µM in the experiment with SR leukemia; over 100 µM with MDA-MB-231 breast; 53.8 µM with MCF7 breast; over 100 µM in the experiment with MOLT-4 leukemia; over 100 µM in the experiment on HS 578T breast; over 100 µM in the experiment with PC-3 prostate. In addition, the TGI in the experiment on OVCAR-3 ovarian, with IGROV1 ovarian, in the experiment with UO-31 renal, in the experiment on MALME-3M melanoma, in the experiment with CAKI-1 renal and in the experiment on OVCAR-8 ovarian was over 100 µM each time. For the same molecule, the TGI in the experiment with 786-0 renal is over 100 µM; in the experiment with CCRF-CEM leukemia, over 100 µM; in the experiment on U251 CNS it was over 100 µM; in the experiment with OVCAR-5 ovarian it was over 100 µM; with SF-539 CNS, 90.7 µM; in the experiment with NCI-H522 lung it was 86.4 µM. In the experiment with SK-MEL-28 melanoma, this molecule returned a TGI of over 100 µM.
On to `C=CCSc1nnc2cc(CN3CCCC3)c(-c3ccc(Cl)cc3)nn12`, for which the TGI with SR leukemia was over 100 µM; in the experiment with MDA-MB-231 breast, 35.6 µM; in the experiment with MCF7 breast it was 33.7 µM; with MOLT-4 leukemia, over 100 µM; in the experiment on HS 578T breast it was over 100 µM; in the experiment on PC-3 prostate it was 35.3 µM. Besides, the TGI with OVCAR-3 ovarian amounted to 36 µM; in the experiment on IGROV1 ovarian it was 44.3 µM; with UO-31 renal, 30.4 µM; in the experiment on MALME-3M melanoma, 43.2 µM; with CAKI-1 renal, 77.5 µM; in the experiment on OVCAR-8 ovarian, 57.1 µM. Further, the TGI with 786-0 renal was 33.7 µM; in the experiment with CCRF-CEM leukemia, over 100 µM; with U251 CNS, 31.2 µM; with OVCAR-5 ovarian it was 41.5 µM; in the experiment with SF-539 CNS it was 36.2 µM; with NCI-H522 lung it was 42.6 µM. Also, the TGI in the experiment with SK-MEL-28 melanoma worked out at 47.8 µM.
As for `O=[N+]([O-])c1ccc(Oc2c(Cl)cc(S(=O)(=O)/N=C(\NO)Nc3ccc(Cl)cc3)cc2Cl)cc1`, the TGI amounted to 17.2 µM in the experiment with SR leukemia; 25.3 µM in the experiment on MDA-MB-231 breast; 24.1 µM with MCF7 breast; 21.7 µM in the experiment on MOLT-4 leukemia; 36.7 µM with HS 578T breast; 22.2 µM in the experiment on PC-3 prostate. For the same molecule, the TGI in the experiment with OVCAR-3 ovarian was determined as 19.4 µM; in the experiment on IGROV1 ovarian it was 29.8 µM; in the experiment with UO-31 renal, 19.2 µM; in the experiment with MALME-3M melanoma, 29 µM; with CAKI-1 renal, 18.9 µM; in the experiment on OVCAR-8 ovarian it was 27.5 µM. For the same molecule, the TGI in the experiment on 786-0 renal was found to be 23.5 µM; in the experiment with CCRF-CEM leukemia, 24.5 µM; with U251 CNS, 25.7 µM; in the experiment with OVCAR-5 ovarian, 25.8 µM; in the experiment on SF-539 CNS, 26.7 µM; in the experiment with NCI-H522 lung, 12.7 µM. Besides, the TGI in the experiment with SK-MEL-28 melanoma was determined as 28.7 µM.
As for `Cc1ccc(S(=O)(=O)N/N=C/C2(c3ccccc3)c3ccccc3-c3ccccc32)cc1`, the TGI in the experiment with SR leukemia is over 100 µM; with MDA-MB-231 breast, 20.8 µM; in the experiment on MCF7 breast, 29.6 µM; in the experiment on MOLT-4 leukemia it was over 100 µM; with HS 578T breast, 39.3 µM; with PC-3 prostate it was 13.4 µM. In addition, the TGI with OVCAR-3 ovarian came to 20.8 µM; in the experiment on IGROV1 ovarian, 23.5 µM; in the experiment on UO-31 renal, 18.6 µM; in the experiment with MALME-3M melanoma, 19.2 µM; in the experiment on CAKI-1 renal, 62.4 µM; in the experiment on OVCAR-8 ovarian, 31.5 µM. The TGI with 786-0 renal was 31.2 µM; in the experiment on CCRF-CEM leukemia, over 100 µM; with U251 CNS, 26.7 µM; in the experiment on OVCAR-5 ovarian, 25.1 µM; in the experiment on SF-539 CNS, 30.9 µM; in the experiment on NCI-H522 lung it was 28.6 µM. Besides, the TGI with SK-MEL-28 melanoma came out at 28.6 µM.
In the case of `CN(C)c1ccc(C(=N/N=C2\C(=O)Nc3ccccc32)c2ccc(N(C)C)cc2)cc1`, the TGI with SR leukemia is 26.8 µM; with MDA-MB-231 breast it was 13.1 µM; in the experiment with MCF7 breast it was 2.72 µM; in the experiment on MOLT-4 leukemia, 52.7 µM; in the experiment on HS 578T breast, over 21.9 µM; in the experiment on PC-3 prostate it was 40 µM. Also, the TGI in the experiment on OVCAR-3 ovarian is 3.63 µM; with IGROV1 ovarian, 9.07 µM; in the experiment with UO-31 renal, 30.8 µM; with MALME-3M melanoma, over 52.1 µM; in the experiment on CAKI-1 renal, 19.7 µM; in the experiment on OVCAR-8 ovarian, 22.4 µM. Moreover, the TGI was 13.2 µM in the experiment on 786-0 renal; 13.2 µM with CCRF-CEM leukemia; 15.5 µM in the experiment with U251 CNS; over 54 µM in the experiment on OVCAR-5 ovarian; 3.72 µM in the experiment on SF-539 CNS; 0.649 µM in the experiment on NCI-H522 lung. This molecule also displayed a TGI in the experiment on SK-MEL-28 melanoma of over 57.2 µM.
